{"source": "ChEMBL document CHEMBL4680139", "about": "“Antiproliferative activity of diarylnaphthylpyrrolidine derivative via dual target inhibition” (Eur J Med Chem, 2020)", "key": {"[1]": {"experiment": "Toxicity in Swiss albino mouse assessed as creatinine level in serum at 5 mg/kg, po administered as single dose (reference value: 0.27+/-0.02 mg/dl)", "format": "organism-based", "details": "in vivo"}, "[2]": {"tested_on": "MCF7", "experiment": "Antiproliferative activity against human MCF-7 cells assessed as inhibition of cell growth measured after 48 hrs by SRB assay", "format": "functional, cell-based", "details": "MCF7, 48 h"}, "[3]": {"experiment": "Toxicity in Swiss albino mouse assessed as WBC level in blood at 300 mg/kg, po administered as single dose (reference value: 17.06 +/- 1.33x10^3/mm3)", "format": "organism-based", "details": "in vivo"}, "[4]": {"tested_on": "MDA-MB-231", "experiment": "Induction of apoptosis in human MDA-MB-231 cells assessed as proportion of late apoptotic cells at 2.6 uM measured after 24 hrs by Annexin V-FITC/propidium iodide staining based flow cytometry (reference value: 0.5%)", "format": "functional"}, "[5]": {"experiment": "Toxicity in Swiss albino mouse assessed as cholesterol level in serum at 300 mg/kg, po administered as single dose (reference value: 103.62 +/-7.45 mg/dl)", "format": "organism-based", "details": "in vivo"}, "[6]": {"tested_on": "MCF7", "experiment": "Induction of cell cycle arrest in human MCF-7 cells assessed as accumulation at S phase at 2.17 uM by propidium iodide staining based flow cytometry (reference value: 6.9%)", "format": "functional"}, "[7]": {"tested_on": "A549", "experiment": "Antiproliferative activity against human A549 cells assessed as inhibition of cell growth measured after 48 hrs by SRB assay", "format": "functional, cell-based", "details": "A549, 48 h"}, "[8]": {"experiment": "Toxicity in Swiss albino mouse assessed as triglyceride level in serum at 300 mg/kg, po administered as single dose (reference value: 78.34 +/-2.99 mg/dl)", "format": "organism-based", "details": "in vivo"}, "[9]": {"experiment": "Inhibition of bovine brain tubulin polymerisation measured by turbidometric method", "format": "tissue-based, Bos taurus"}, "[10]": {"tested_on": "MCF7", "experiment": "Antiproliferative activity against human MCF-7 cells assessed as inhibition of colony formation measured after 3 weeks by crystal violet staining based soft agar colony formation assay", "format": "functional, cell-based"}, "[11]": {"tested_on": "MDA-MB-231", "experiment": "Induction of apoptosis in human MDA-MB-231 cells assessed as proportion of early apoptotic cells at 5.21 uM measured after 24 hrs by Annexin V-FITC/propidium iodide staining based flow cytometry (reference value: 0.2%)", "format": "functional"}, "[12]": {"experiment": "Toxicity in Swiss albino mouse assessed as total bilirubin level in serum at 5 mg/kg, po administered as single dose (reference value: 0.62 +/-0.05 mg/dl)", "format": "organism-based", "details": "in vivo"}, "[13]": {"experiment": "Toxicity in Swiss albino mouse assessed as total bilirubin level in serum at 300 mg/kg, po administered as single dose (reference value: 0.62 +/-0.05 mg/dl)", "format": "organism-based", "details": "in vivo"}, "[14]": {"experiment": "Toxicity in Swiss albino mouse assessed as total bilirubin level in serum at 50 mg/kg, po administered as single dose (reference value: 0.62 +/-0.05 mg/dl)", "format": "organism-based", "details": "in vivo"}, "[15]": {"tested_on": "MDA-MB-231", "experiment": "Induction of apoptosis in human MDA-MB-231 cells at 5.21 uM by propidium iodide staining based flow cytometry (reference value: 2.6 +/- 0.28%)", "format": "functional"}, "[16]": {"experiment": "Toxicity in Swiss albino mouse assessed as haemoglobin level in blood at 300 mg/kg, po administered as single dose (reference value: 12.05 +/-0.88 gm/dl)", "format": "organism-based", "details": "in vivo"}, "[17]": {"tested_on": "MDA-MB-231", "experiment": "Induction of apoptosis in human MDA-MB-231 cells assessed as proportion of early apoptotic cells at 10.42 uM measured after 24 hrs by Annexin V-FITC/propidium iodide staining based flow cytometry (reference value: 0.2%)", "format": "functional"}, "[18]": {"tested_on": "MCF7", "experiment": "Antiproliferative activity against human MCF-7 cells assessed as proportion of live cells at 6.25 ug/ml measured after 3 weeks by crystal violet staining based soft agar colony formation assay (reference value: 100%)", "format": "functional", "details": "dose 6.25 µg/ml"}, "[19]": {"tested_on": "MCF7", "experiment": "Antiproliferative activity against human MCF-7 cells assessed as proportion of dead cells at 25 ug/ml measured after 3 weeks by crystal violet staining based soft agar colony formation assay", "format": "functional", "details": "dose 25 µg/ml"}, "[20]": {"tested_on": "MDA-MB-231", "experiment": "Induction of apoptosis in human MDA-MB-231 cells assessed as proportion of late apoptotic cells at 10.42 uM measured after 24 hrs by Annexin V-FITC/propidium iodide staining based flow cytometry (reference value: 0.5%)", "format": "functional"}, "[21]": {"tested_on": "MDA-MB-231", "experiment": "Induction of cell cycle arrest in human MDA-MB-231 cells assessed as accumulation at S phase at 5.21 uM by propidium iodide staining based flow cytometry (reference value: 11.35 +/- 0.07%)", "format": "functional"}, "[22]": {"tested_on": "MCF7", "experiment": "Induction of apoptosis in human MCF-7 cells assessed as proportion of late apoptotic cells at 8.66 uM measured after 24 hrs by Annexin V- FITC/propidium iodide staining based flow cytometry (reference value: 0.1%)", "format": "functional"}, "[23]": {"tested_on": "MCF7", "experiment": "Induction of cell cycle arrest in human MCF-7 cells assessed as accumulation at G0/G1 phase at 4.33 uM by propidium iodide staining based flow cytometry (reference value: 74.5%)", "format": "functional"}, "[24]": {"experiment": "Toxicity in Swiss albino mouse assessed as absolute and relative brain weight at 5 to 300 mg/kg, po administered as single dose", "format": "organism-based", "details": "in vivo, dose 5-300 mg/kg"}, "[25]": {"tested_on": "MCF7", "experiment": "Antiproliferative activity against human MCF-7 cells assessed as proportion of dead cells at 50 ug/ml measured after 3 weeks by crystal violet staining based soft agar colony formation assay", "format": "functional", "details": "dose 50 µg/ml"}, "[26]": {"tested_on": "MCF7", "experiment": "Antiproliferative activity against human MCF-7 cells assessed as proportion of dead cells at 12.5 ug/ml measured after 3 weeks by crystal violet staining based soft agar colony formation assay", "format": "functional", "details": "dose 12.5 µg/ml"}, "[27]": {"experiment": "Toxicity in Swiss albino mouse assessed as absolute and relative liver weight at 5 to 300 mg/kg, po administered as single dose", "format": "organism-based", "details": "in vivo, dose 5-300 mg/kg"}, "[28]": {"tested_on": "MCF7", "experiment": "Induction of cell cycle arrest in human MCF-7 cells assessed as accumulation at G2/M phase at 4.33 uM by propidium iodide staining based flow cytometry (reference value: 15.2%)", "format": "functional"}, "[29]": {"tested_on": "MCF7", "experiment": "Antiproliferative activity against human MCF-7 cells assessed as proportion of live cells at 12.5 ug/ml measured after 3 weeks by crystal violet staining based soft agar colony formation assay (reference value: 100%)", "format": "functional", "details": "dose 12.5 µg/ml"}, "[30]": {"tested_on": "MDA-MB-231", "experiment": "Induction of cell cycle arrest in human MDA-MB-231 cells assessed as accumulation at G0/G1 phase at 5.21 uM by propidium iodide staining based flow cytometry (reference value: 77.7 +/- 0.28%)", "format": "functional"}, "[31]": {"experiment": "Toxicity in Swiss albino mouse assessed as ALP level in serum at 5 mg/kg, po administered as single dose (reference value: 195.8 +/-12.06 U/L)", "format": "organism-based", "details": "in vivo"}, "[32]": {"experiment": "Toxicity in Swiss albino mouse assessed as ALP level in serum at 300 mg/kg, po administered as single dose (reference value: 195.8 +/-12.06 U/L)", "format": "organism-based", "details": "in vivo"}, "[33]": {"tested_on": "MCF7", "experiment": "Induction of apoptosis in human MCF-7 cells assessed as proportion of late apoptotic cells at 2.17 uM measured after 24 hrs by Annexin V- FITC/propidium iodide staining based flow cytometry (reference value: 0.1%)", "format": "functional"}, "[34]": {"tested_on": "MDA-MB-231", "experiment": "Induction of apoptosis in human MDA-MB-231 cells at 10.42 uM by propidium iodide staining based flow cytometry (reference value: 2.6 +/- 0.28%)", "format": "functional"}, "[35]": {"target": "DNA topoisomerase 2-alpha (Homo sapiens) (UniProt P11388)", "sequence (P11388 whole entry)": "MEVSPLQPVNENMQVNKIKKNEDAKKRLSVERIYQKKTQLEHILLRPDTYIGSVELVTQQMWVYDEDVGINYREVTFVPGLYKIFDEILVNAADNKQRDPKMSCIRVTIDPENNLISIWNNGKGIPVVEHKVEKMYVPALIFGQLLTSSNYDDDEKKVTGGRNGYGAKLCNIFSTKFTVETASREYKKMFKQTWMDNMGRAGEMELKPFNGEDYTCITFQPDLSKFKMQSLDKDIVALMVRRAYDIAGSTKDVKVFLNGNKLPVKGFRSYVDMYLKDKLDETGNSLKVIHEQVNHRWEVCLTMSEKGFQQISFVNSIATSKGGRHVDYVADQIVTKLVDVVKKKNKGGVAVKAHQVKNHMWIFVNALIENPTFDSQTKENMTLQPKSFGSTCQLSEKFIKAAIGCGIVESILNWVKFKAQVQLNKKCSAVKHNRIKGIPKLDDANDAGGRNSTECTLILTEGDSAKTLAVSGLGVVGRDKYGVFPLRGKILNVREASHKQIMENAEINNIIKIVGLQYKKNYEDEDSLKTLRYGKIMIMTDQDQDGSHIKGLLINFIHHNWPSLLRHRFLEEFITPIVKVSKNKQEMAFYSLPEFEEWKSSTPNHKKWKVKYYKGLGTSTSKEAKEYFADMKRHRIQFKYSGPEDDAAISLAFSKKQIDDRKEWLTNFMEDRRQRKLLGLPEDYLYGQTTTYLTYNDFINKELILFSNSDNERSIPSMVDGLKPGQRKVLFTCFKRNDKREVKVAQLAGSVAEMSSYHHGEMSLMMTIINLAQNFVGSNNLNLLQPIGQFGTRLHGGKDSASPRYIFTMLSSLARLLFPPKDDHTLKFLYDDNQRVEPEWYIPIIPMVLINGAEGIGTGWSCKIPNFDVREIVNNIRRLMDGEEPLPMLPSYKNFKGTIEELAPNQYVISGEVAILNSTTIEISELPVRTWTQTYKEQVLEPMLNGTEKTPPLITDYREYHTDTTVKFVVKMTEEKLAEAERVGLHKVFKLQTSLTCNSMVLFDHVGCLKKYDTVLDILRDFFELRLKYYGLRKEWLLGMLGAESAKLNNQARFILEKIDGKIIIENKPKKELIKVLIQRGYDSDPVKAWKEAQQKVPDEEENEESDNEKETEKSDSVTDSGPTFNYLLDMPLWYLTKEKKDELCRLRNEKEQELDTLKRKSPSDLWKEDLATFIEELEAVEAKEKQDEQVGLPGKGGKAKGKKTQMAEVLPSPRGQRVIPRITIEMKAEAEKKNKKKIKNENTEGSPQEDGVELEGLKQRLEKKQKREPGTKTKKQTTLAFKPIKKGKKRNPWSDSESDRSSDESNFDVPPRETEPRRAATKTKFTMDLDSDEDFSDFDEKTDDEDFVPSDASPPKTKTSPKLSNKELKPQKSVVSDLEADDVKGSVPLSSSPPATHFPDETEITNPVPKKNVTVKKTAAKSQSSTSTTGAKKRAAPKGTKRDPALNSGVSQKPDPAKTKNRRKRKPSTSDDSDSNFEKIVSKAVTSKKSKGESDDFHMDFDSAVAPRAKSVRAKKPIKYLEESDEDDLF", "experiment": "Inhibition of DNA-topoisomerase 2 in human MCF7 cells using kinetoplast DNA as substrate measured by ELISA", "format": "cell-based", "details": "dose 4.33-17.32 µM"}}, "data": [{"smiles": "COc1ccc(C(c2ccccc2OCCN2CCCC2)c2cccc3ccccc23)c(OC)c1OC", "note": "(stereo unspecified)", "values": [{"measurement": "Activity", "setting": "[1]", "result": 0.22, "unit": "mg/dL"}, {"measurement": "IC50", "setting": "[2]", "result": 4.33, "unit": "µM"}, {"measurement": "Activity", "setting": "[3]", "result": "7.19 10^3/mm3"}, {"measurement": "Activity", "setting": "[4]", "result": 2, "unit": "%"}, {"measurement": "Activity", "setting": "[5]", "result": 120.54, "unit": "mg/dL"}, {"measurement": "Activity", "setting": "[6]", "result": 10.9, "unit": "%"}, {"measurement": "IC50", "setting": "[7]", "result": 5.85, "unit": "µM"}, {"measurement": "Activity", "setting": "[8]", "result": 106.09, "unit": "mg/dL"}, {"measurement": "IC50", "setting": "[9]", "result": 5.65, "unit": "µM"}, {"measurement": "inhibition", "setting": "[10]", "result": "Dose-dependent effect"}, {"measurement": "IC50", "setting": "[10]; MCF7, 504 h", "result": 11.2, "unit": "µg/mL"}, {"measurement": "Activity", "setting": "[11]", "result": 0.4, "unit": "%"}, {"measurement": "Activity", "setting": "[12]", "result": 0.66, "unit": "mg/dL"}, {"measurement": "Activity", "setting": "[13]", "result": 1.01, "unit": "mg/dL"}, {"measurement": "Activity", "setting": "[14]", "result": 0.62, "unit": "mg/dL"}, {"measurement": "Activity", "setting": "[15]", "result": 2.8, "unit": "%"}, {"measurement": "Activity", "setting": "[16]", "result": 10.13, "unit": "g/dL"}, {"measurement": "Activity", "setting": "[17]", "result": 1.7, "unit": "%"}, {"measurement": "Activity", "setting": "[18]", "result": 70.77, "unit": "%"}, {"measurement": "Activity", "setting": "[19]", "result": 79.36, "unit": "%"}, {"measurement": "Activity", "setting": "[20]", "result": 34.2, "unit": "%"}, {"measurement": "Activity", "setting": "[21]", "result": 7.9, "unit": "%"}, {"measurement": "Activity", "setting": "[22]", "result": 25.8, "unit": "%"}, {"measurement": "Activity", "setting": "[23]", "result": 67.4, "unit": "%"}, {"measurement": "Activity", "setting": "[24]", "result": "Non-Toxic"}, {"measurement": "Activity", "setting": "[25]", "result": 87.02, "unit": "%"}, {"measurement": "Activity", "setting": "[26]", "result": 52.8, "unit": "%"}, {"measurement": "Activity", "setting": "[27]", "result": "Non-Toxic"}, {"measurement": "Activity", "setting": "[28]", "result": 13.4, "unit": "%"}, {"measurement": "Activity", "setting": "[29]", "result": 47.2, "unit": "%"}, {"measurement": "Activity", "setting": "[30]", "result": 79.1, "unit": "%"}, {"measurement": "Activity", "setting": "[31]", "result": 198.57, "unit": "U/L"}, {"measurement": "Activity", "setting": "[32]", "result": 137.7, "unit": "U/L"}, {"measurement": "Activity", "setting": "[33]", "result": 16.5, "unit": "%"}, {"measurement": "Activity", "setting": "[34]", "result": 16.7, "unit": "%"}, {"measurement": "inhibition", "setting": "[35]", "result": "Dose-dependent effect"}]}]}
